Measured values from paper PMC2248166, “Quantitative peptide binding motifs for 19 human and mouse MHC class I molecules derived using positional scanning combinatorial peptide libraries” (Immunome Research, 2008).
Where a SMILES comes first, the peptide text is derived from it.

Target: HLA A*3001 (Homo sapiens, UniProt P04439, D140H/D185E/E176W/F33S/G80R/H175R/K168Q/R138E/R41S)
Assay: biochemical
Assay type: binding

Chain of HLA A*3001 (P04439 25-365 limits assumed, stated change not applied): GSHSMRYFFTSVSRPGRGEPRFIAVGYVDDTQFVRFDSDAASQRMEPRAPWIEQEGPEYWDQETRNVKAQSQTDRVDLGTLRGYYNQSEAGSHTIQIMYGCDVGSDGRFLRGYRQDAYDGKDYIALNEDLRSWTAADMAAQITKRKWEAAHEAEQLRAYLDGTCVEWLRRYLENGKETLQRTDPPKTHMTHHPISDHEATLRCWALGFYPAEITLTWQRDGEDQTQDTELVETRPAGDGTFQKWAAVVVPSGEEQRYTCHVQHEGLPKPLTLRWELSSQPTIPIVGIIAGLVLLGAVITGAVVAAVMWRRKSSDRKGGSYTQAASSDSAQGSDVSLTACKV

| Structure (SMILES) | IC50 [nM] |
| --- | --- |
| CC[C@H](C)[C@H](NC(=O)[C@@H](NC(=O)[C@H](CC(N)=O)NC(=O)[C@H](CCCCN)NC(=O)[C@H](CO)NC(=O)[C@@H](N)CCCNC(=N)N)[C@@H](C)O)C(=O)N[C@H](C(=O)N[C@H](C(=O)N[C@@H](C)C(=O)O)[C@@H](C)CC)[C@@H](C)CC [3102.0089] (H-RSKNTIIIA-OH) | 0.16 |
| CSCC[C@H](N)C(=O)N[C@@H](CCC(N)=O)C(=O)N[C@@H](CCCCN)C(=O)N[C@@H](CS)C(=O)N[C@@H](Cc1ccc(O)cc1)C(=O)N[C@@H](Cc1ccccc1)C(=O)N[C@@H](CO)C(=O)N[C@@H](Cc1ccc(O)cc1)C(=O)N[C@@H](CCCCN)C(=O)O [3102.0090] (H-MQKCYFSYK-OH) | 0.53 |
| CC[C@H](C)[C@H](NC(=O)[C@@H](N)CCCCN)C(=O)N[C@@H](CCCCN)C(=O)N[C@@H](CO)C(=O)N[C@@H](CO)C(=O)N[C@@H](CC(N)=O)C(=O)N[C@@H](CO)C(=O)N[C@@H](CO)C(=O)N[C@@H](CCCCN)C(=O)O [3102.0091] (H-KIKSSNSSK-OH) | 15 |
| CC[C@H](C)[C@H](NC(=O)[C@H](CC(N)=O)NC(=O)CNC(=O)[C@H](CC(N)=O)NC(=O)[C@H](CCCCN)NC(=O)[C@@H](NC(=O)[C@H](C)N)[C@@H](C)O)C(=O)N[C@@H](Cc1ccccc1)C(=O)N[C@H](C(=O)O)C(C)C [3102.0093] (H-ATKNGNIFV-OH) | 3.9 |
| CC[C@H](C)[C@H](NC(=O)[C@H](CC(C)C)NC(=O)[C@H](C)NC(=O)[C@@H](NC(=O)[C@H](Cc1c[nH]cn1)NC(=O)[C@@H](NC(=O)[C@@H](N)CCCNC(=N)N)[C@@H](C)O)[C@@H](C)O)C(=O)N[C@@H](Cc1ccccc1)C(=O)N[C@@H](CC(C)C)C(=O)O [3102.0094] (H-RTHTALIFL-OH) | 0.7 |
| CC[C@H](C)[C@H](NC(=O)[C@@H](NC(=O)[C@H](CCCCN)NC(=O)[C@H](CO)NC(=O)[C@H](C)N)[C@@H](C)O)C(=O)N[C@@H](CC(N)=O)C(=O)N[C@@H](C)C(=O)N[C@@H](CC(C)C)C(=O)N[C@H](C(=O)O)C(C)C [3102.0095] (H-ASKTINALV-OH) | 0.18 |
| CC[C@H](C)[C@H](NC(=O)[C@H](CCC(N)=O)NC(=O)[C@H](Cc1c[nH]cn1)NC(=O)[C@H](CO)NC(=O)[C@H](CCC(=O)O)NC(=O)[C@H](CCCCN)NC(=O)[C@@H](NC(=O)[C@@H](N)C(C)C)[C@@H](C)O)C(=O)N[C@@H](CCCCN)C(=O)O [3102.0096] (H-VTKESHQIK-OH) | 1.5 |
| CC[C@H](C)[C@H](NC(=O)[C@@H](N)CCCCN)C(=O)N[C@@H](CCCCN)C(=O)N[C@@H](C)C(=O)NCC(=O)N1CCC[C@H]1C(=O)N[C@@H](CCCNC(=N)N)C(=O)N[C@@H](Cc1ccc(O)cc1)C(=O)N[C@H](C(=O)O)C(C)C [3102.0097] (H-KIKAGPRYV-OH) | 6.9 |
| CC[C@H](C)[C@H](N)C(=O)N[C@@H](CO)C(=O)N[C@@H](CCCNC(=N)N)C(=O)N[C@@H](Cc1ccccc1)C(=O)N[C@@H](C)C(=O)N[C@@H](CC(N)=O)C(=O)N[C@@H](CC(C)C)C(=O)N[C@H](C(=O)N[C@@H](CCCCN)C(=O)O)[C@@H](C)CC [3102.0098] (H-ISRFANLIK-OH) | 13 |
| CC[C@H](C)[C@H](NC(=O)[C@H](Cc1c[nH]cn1)NC(=O)[C@@H](NC(=O)[C@H](CC(N)=O)NC(=O)[C@H](CCCCN)NC(=O)[C@@H](NC(=O)[C@@H](N)CCCCN)C(C)C)C(C)C)C(=O)NCC(=O)NCC(=O)O [3102.0099] (H-KVKNVHIGG-OH) | 0.34 |
| CC[C@H](C)[C@H](NC(=O)[C@H](CCSC)NC(=O)[C@H](Cc1ccccc1)NC(=O)[C@H](CC(=O)O)NC(=O)[C@H](CC(N)=O)NC(=O)[C@H](CCCCN)NC(=O)[C@@H](NC(=O)[C@@H](N)Cc1c[nH]cn1)[C@@H](C)CC)C(=O)N[C@@H](CCCCN)C(=O)O [3102.0101] (H-HIKNDFMIK-OH) | 1.6 |
| CC(C)[C@H](NC(=O)[C@H](C)NC(=O)[C@H](Cc1ccccc1)NC(=O)[C@H](CO)NC(=O)[C@H](CS)NC(=O)[C@H](CCCNC(=N)N)NC(=O)[C@H](Cc1ccc(O)cc1)NC(=O)[C@@H](N)CCCNC(=N)N)C(=O)N[C@@H](C)C(=O)O [3102.0102] (H-RYRCSFAVA-OH) | 0.0038 |
| CC(C)C[C@H](NC(=O)[C@H](CO)NC(=O)[C@@H](N)CCCCN)C(=O)N[C@@H](Cc1ccc(O)cc1)C(=O)N[C@@H](CO)C(=O)N[C@@H](Cc1c[nH]cn1)C(=O)N[C@@H](CCC(N)=O)C(=O)N[C@@H](CC(C)C)C(=O)N[C@H](C(=O)O)C(C)C [3102.0103] (H-KSLYSHQLV-OH) | 12 |
| CC[C@H](C)[C@H](NC(=O)[C@@H]1CCCN1C(=O)[C@H](CC(C)C)NC(=O)[C@H](CCCNC(=N)N)NC(=O)[C@@H](NC(=O)[C@@H](N)CCSC)[C@@H](C)O)C(=O)N[C@@H](CC(C)C)C(=O)N[C@@H](CC(C)C)C(=O)N[C@@H](CC(C)C)C(=O)O [3102.0104] (H-MTRLPILLL-OH) | 0.65 |
| CC(C)C[C@H](NC(=O)[C@@H](N)CCCCN)C(=O)N[C@@H](CCCNC(=N)N)C(=O)N[C@@H](CS)C(=O)N[C@@H](CCCNC(=N)N)C(=O)N[C@@H](CC(N)=O)C(=O)N[C@H](C(=O)N[C@@H](CCC(=O)O)C(=O)N[C@@H](C)C(=O)O)[C@@H](C)O [3102.0105] (H-KLRCRNTEA-OH) | 14 |
| CC[C@H](C)[C@H](NC(=O)[C@@H](N)CCCNC(=N)N)C(=O)N[C@@H](CCCNC(=N)N)C(=O)N[C@@H](CCC(N)=O)C(=O)N[C@@H](CCC(N)=O)C(=O)N[C@@H](CC(C)C)C(=O)N1CCC[C@H]1C(=O)N[C@@H](CC(C)C)C(=O)N[C@@H](Cc1ccc(O)cc1)C(=O)O [3102.0107] (H-RIRQQLPLY-OH) | 13 |
| CC(C)C[C@H](NC(=O)[C@H](CC(N)=O)NC(=O)[C@H](CCC(N)=O)NC(=O)[C@H](CC(N)=O)NC(=O)[C@H](CO)NC(=O)[C@H](CC(C)C)NC(=O)[C@H](Cc1c[nH]cn1)NC(=O)[C@@H](NC(=O)[C@@H](N)Cc1c[nH]cn1)[C@@H](C)O)C(=O)O [3102.0108] (H-HTHLSNQNL-OH) | 5.8 |
| CC[C@H](C)[C@H](NC(=O)[C@H](CC(C)C)NC(=O)[C@H](CCCNC(=N)N)NC(=O)[C@H](CCC(N)=O)NC(=O)[C@H](CCCNC(=N)N)NC(=O)[C@H](Cc1ccc(O)cc1)NC(=O)[C@@H](N)CCCNC(=N)N)C(=O)N[C@@H](CO)C(=O)N[C@@H](CC(C)C)C(=O)O [3102.0110] (H-RYRQRLISL-OH) | 5.2 |
| CC[C@H](C)[C@H](NC(=O)[C@H](Cc1ccc(O)cc1)NC(=O)[C@H](CO)NC(=O)[C@H](CC(C)C)NC(=O)[C@H](Cc1ccccc1)NC(=O)[C@H](Cc1c[nH]cn1)NC(=O)[C@H](CCCNC(=N)N)NC(=O)[C@@H](NC(=O)[C@@H](N)CCCNC(=N)N)[C@@H](C)O)C(=O)O [3102.0111] (H-RTRHFLSYI-OH) | 0.24 |
| CC[C@H](C)[C@H](NC(=O)[C@H](CC(N)=O)NC(=O)[C@H](CCCNC(=N)N)NC(=O)[C@@H](NC(=O)[C@H](CCCNC(=N)N)NC(=O)[C@H](CO)NC(=O)CN)C(C)C)C(=O)N[C@H](C(=O)N[C@@H](C)C(=O)O)[C@@H](C)CC [3102.0112] (H-GSRVRNIIA-OH) | 8.9 |
| NCCCC[C@H](NC(=O)[C@H](CS)NC(=O)[C@@H]1CCCN1C(=O)[C@H](CC(N)=O)NC(=O)[C@H](CCC(=O)O)NC(=O)[C@H](Cc1ccc(O)cc1)NC(=O)[C@H](CCCCN)NC(=O)[C@H](Cc1c[nH]c2ccccc12)NC(=O)[C@@H](N)CCCCN)C(=O)O [3102.0113] (H-KWKYENPCK-OH) | 15 |
| CC(C)[C@H](NC(=O)[C@H](CO)NC(=O)[C@H](C)NC(=O)[C@H](Cc1c[nH]cn1)NC(=O)[C@H](CC(N)=O)NC(=O)[C@H](Cc1ccccc1)NC(=O)[C@H](C)NC(=O)[C@@H](N)CCCCN)C(=O)N[C@@H](CCCCN)C(=O)O [3102.0118] (H-KAFNHASVK-OH) | 35 |
| CSCC[C@H](NC(=O)[C@H](CCCNC(=N)N)NC(=O)CNC(=O)[C@H](CO)NC(=O)[C@H](CO)NC(=O)[C@@H](NC(=O)[C@@H](N)CCCCN)[C@@H](C)O)C(=O)N1CCC[C@H]1C(=O)N[C@H](C(=O)O)C(C)C [3102.0119] (H-KTSSGRMPV-OH) | 2 |
| C[C@H](NC(=O)[C@H](Cc1ccc(O)cc1)NC(=O)[C@H](CCCNC(=N)N)NC(=O)[C@H](Cc1ccc(O)cc1)NC(=O)[C@@H](NC(=O)[C@@H](N)CCCCN)[C@@H](C)O)C(=O)N[C@@H](Cc1ccccc1)C(=O)N[C@@H](CO)C(=O)N[C@@H](CCCCN)C(=O)O [3102.0120] (H-KTYRYAFSK-OH) | 22 |
| CSCC[C@H](NC(=O)[C@@H](N)CCCCN)C(=O)N[C@@H](CCCNC(=N)N)C(=O)N[C@@H](CC(=O)O)C(=O)N[C@H](C(=O)N[C@@H](CC(C)C)C(=O)N1CCC[C@H]1C(=O)N[C@@H](C)C(=O)N[C@@H](CCCCN)C(=O)O)[C@@H](C)O [3102.0121] (H-KMRDTLPAK-OH) | 1.6 |
| CC[C@H](C)[C@H](NC(=O)[C@H](Cc1ccc(O)cc1)NC(=O)[C@@H](NC(=O)[C@@H](N)CCCCN)C(C)C)C(=O)N[C@@H](CC(N)=O)C(=O)N[C@@H](Cc1c[nH]cn1)C(=O)N1CCC[C@H]1C(=O)N[C@@H](Cc1ccccc1)C(=O)N[C@@H](CCSC)C(=O)O [3102.0124] (H-KVYINHPFM-OH) | 0.52 |
| CC[C@H](C)[C@H](N)C(=O)N[C@H](C(=O)N[C@@H](CCCNC(=N)N)C(=O)N[C@@H](CC(=O)O)C(=O)N[C@@H](CO)C(=O)N[C@@H](CCSC)C(=O)N[C@@H](Cc1c[nH]c2ccccc12)C(=O)N[C@@H](Cc1ccc(O)cc1)C(=O)N[C@H](C(=O)O)[C@@H](C)CC)C(C)C [3102.0125] (H-IVRDSMWYI-OH) | 20 |
| CC(C)C[C@H](NC(=O)[C@H](Cc1c[nH]cn1)NC(=O)[C@H](CC(N)=O)NC(=O)[C@H](CC(N)=O)NC(=O)[C@H](CCCNC(=N)N)NC(=O)[C@H](CO)NC(=O)[C@@H](N)[C@@H](C)O)C(=O)N1CCC[C@H]1C(=O)N[C@@H](C)C(=O)O [3102.0126] (H-TSRNNHLPA-OH) | 15 |
| CC[C@H](C)[C@H](NC(=O)[C@H](Cc1ccccc1)NC(=O)[C@@H]1CCCN1C(=O)[C@H](C)NC(=O)[C@H](CS)NC(=O)[C@H](Cc1c[nH]c2ccccc12)NC(=O)[C@H](CCCCN)NC(=O)[C@@H](NC(=O)[C@@H](N)CCSC)[C@@H](C)O)C(=O)O [3102.0130] (H-MTKWCAPFI-OH) | 0.17 |
| CC(C)C[C@H](NC(=O)[C@H](Cc1c[nH]cn1)NC(=O)[C@H](CC(N)=O)NC(=O)[C@H](CS)NC(=O)[C@H](CCCNC(=N)N)NC(=O)[C@H](C)NC(=O)[C@@H](N)CCCCN)C(=O)N[C@H](C(=O)N[C@@H](CCCCN)C(=O)O)[C@@H](C)O [3102.0131] (H-KARCNHLTK-OH) | 0.21 |
